ChEMBL document CHEMBL6127035, “Novel pyridazinone derivatives bind to KSRP: Synthesis, anti-tumor biological evaluations and modelling insights” (Eur J Med Chem, 2024)
Activity calls are given as the source filed them. The calls are words filed in the database; no cut-off is given here.

Key:
MCF7 [1] = assay: Inhibition of colony formation in human MCF7 cells assessed as reduction in colony count incubated for 2 weeks by crystal violet staining based analysis; assay type: functional, cell-based; conditions: dose 1.25-2.5 µM
MCF7 [2] = assay: Induction of apoptosis in human MCF7 cells assessed as necrotic cells at 2.5 uM incubated for 48 hrs by Annexin V-FITC/PI staining based flow cytometric analysis (reference value: 1.16 %); assay type: functional
[3] = Toxicity in BALB/C-nu/nu mouse xenografted with human MCF7 cells assessed as histopathological lesions in liver at 20 to 30 mg/kg, iv administered every other day for 15 days by H and E staining based analysis; assay type: organism-based; conditions: in vivo, 360 h, dose 20-30 mg/kg, time 15 day
MDA-MB-231 [4] = assay: Inhibition of cell migration in human MDA-MB-231 cells assessed as reduction in wound healing index measured after 72 hrs by scratch assay; assay type: functional, cell-based
MCF7 [5] = assay: Induction of apoptosis in human MCF7 cells assessed as late apoptotic cells at 2.5 uM incubated for 48 hrs by Annexin V-FITC/PI staining based flow cytometric analysis (reference value: 5.31 %); assay type: functional
MCF7 [6] = assay: Induction of cell cycle arrest in human MCF7 cells assessed as increase in sub-G1 phase cells at 5 uM incubated for 24 hrs by PI staining based flow cytometric analysis; assay type: functional
MCF7 [7] = assay: Induction of DNA double-strand breaks in human MCF7 cells assessed as increase in gamma-H2AX expression incubated for 24 hrs by Western blotting; assay type: functional, cell-based
Mitochondrial membrane = assay: Induction of mitochondrial membrane potential loss in human MCF7 cells assessed as increase in green fluorescence at 10 uM incubated for 24 hrs by JC-1 staining based automated microscopic immunofluorescence analysis; assay type: cell membranes
[8] = biological target: T1, Far upstream element-binding protein 2 (Homo sapiens) (UniProt Q92945); assay: Binding affinity to recombinant full-length KSRP (unknown origin) by SPR analysis
T1 sequence (whole entry): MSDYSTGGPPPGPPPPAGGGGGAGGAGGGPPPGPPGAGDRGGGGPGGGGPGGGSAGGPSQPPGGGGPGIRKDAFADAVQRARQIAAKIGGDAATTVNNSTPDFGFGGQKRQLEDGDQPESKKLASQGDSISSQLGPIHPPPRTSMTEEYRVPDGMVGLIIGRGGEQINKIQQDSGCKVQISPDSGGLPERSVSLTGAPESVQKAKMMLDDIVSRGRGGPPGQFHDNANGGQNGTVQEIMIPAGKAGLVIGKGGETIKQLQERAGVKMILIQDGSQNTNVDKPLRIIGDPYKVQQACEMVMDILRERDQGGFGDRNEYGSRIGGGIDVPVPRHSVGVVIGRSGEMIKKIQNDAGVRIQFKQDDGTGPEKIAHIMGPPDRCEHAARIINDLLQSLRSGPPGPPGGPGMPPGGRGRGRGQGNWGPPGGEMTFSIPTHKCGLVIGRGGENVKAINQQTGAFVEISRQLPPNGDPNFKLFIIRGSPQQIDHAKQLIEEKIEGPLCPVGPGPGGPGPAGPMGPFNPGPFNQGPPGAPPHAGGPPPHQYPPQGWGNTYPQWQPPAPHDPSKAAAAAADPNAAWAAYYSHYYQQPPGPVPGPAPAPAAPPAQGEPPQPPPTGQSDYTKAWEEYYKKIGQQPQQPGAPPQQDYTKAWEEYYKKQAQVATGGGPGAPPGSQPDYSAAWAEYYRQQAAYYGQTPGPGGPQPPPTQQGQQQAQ

4T1 = assay: Antiproliferative activity against mouse 4T1 cells assessed as reduction in cell viability incubated for 2 days by MTT assay; assay type: functional, cell-based; conditions: 4T1, 48 h
MCF7 [9] = assay: Induction of cell cycle arrest in human MCF7 cells assessed as decrease in G0/G1 phase cells at 5 uM incubated for 24 hrs by PI staining based flow cytometric analysis; assay type: functional
MCF7 [10] = assay: Induction of apoptosis in human MCF7 cells assessed as viable cells at 0.62 uM incubated for 48 hrs by Annexin V-FITC/PI staining based flow cytometric analysis (reference value: 87.2 %); assay type: functional; conditions: read-out: Activity
MCF7 [11] = assay: Antiproliferation against human MCF7 cells assessed as effect on cell proliferation at 0.625 uM incubated for 2 days by MTT assay; assay type: functional, cell-based; conditions: time 2.0 day
MCF7 [12] = assay: Antitumor activity against human MCF7 cells xenografted in BALB/C-nu/nu mouse model assessed as decrease in tumor volume at 20 mg/kg, iv administered every other day for 15 days relative to control; assay type: functional; design: scale not given: the % may be the effect or the level left; conditions: time 15 day
[13] = Toxicity in BALB/C-nu/nu mouse xenografted with human MCF7 cells assessed as histopathological lesions in lung at 20 to 30 mg/kg, iv administered every other day for 15 days by H and E staining based analysis; assay type: organism-based; conditions: in vivo, 360 h, dose 20-30 mg/kg, time 15 day
MCF7 [14] = assay: Induction of apoptosis in human MCF7 cells assessed as necrotic cells at 0.62 uM incubated for 48 hrs by Annexin V-FITC/PI staining based flow cytometric analysis (reference value: 1.16 %); assay type: functional
MCF7 [15] = assay: Induction of apoptosis in human MCF7 cells assessed as late apoptotic cells at 1.25 uM incubated for 48 hrs by Annexin V-FITC/PI staining based flow cytometric analysis (reference value: 5.31 %); assay type: functional
A549 = assay: Antiproliferative activity against human A549 cells assessed as reduction in cell viability incubated for 2 days by MTT assay; assay type: functional, cell-based; conditions: A549, 48 h
MCF7 [16] = assay: Antitumor activity against human MCF7 cells xenografted in BALB/C-nu/nu mouse model assessed as decrease in tumor growth at 20 to 30 mg/kg, iv administered every other day for 15 days; assay type: functional, organism-based; conditions: dose 20-30 mg/kg, time 15.0 day
MCF7 [17] = assay: Antitumor activity against human MCF7 cells xenografted in BALB/C-nu/nu mouse model assessed as inhibition of Ki-67 expression level at 20 to 30 mg/kg, iv administered every other day for 15 days by immunohistochemical analysis; assay type: functional, organism-based; conditions: dose 20-30 mg/kg, time 15.0 day
[18] = Acute toxicity in ip dosed BALB/c nu/nu mouse assessed as lethal dose measured after 7 days; assay type: organism-based; conditions: in vivo, time 7 day
[19] = Cytotoxicity against human L02 cells assessed as reduction in cell viability incubated for 2 days by MTT assay; assay type: toxicity, cell-based
MCF7 [20] = assay: Induction of DNA double-strand breaks in human MCF7 cells assessed as increase in gamma-H2AX foci formation at 10 uM incubated for 24 hrs by […] fluorescence microscopic analysis; assay type: functional, cell-based
MCF7 [21] = assay: Antiproliferative activity against human MCF7 cells assessed as reduction in cell viability incubated for 2 days by MTT assay; assay type: functional, cell-based; conditions: MCF7, 48 h
[22] = Acute toxicity in BALB/c nu/nu mouse assessed as survival rate at 110 mg/kg, ip administered for 7 days relative to control; assay type: organism-based; conditions: in vivo, time 7 day
MDA-MB-231 [23] = assay: Inhibition of colony formation in human MDA-MB-231 cells assessed as reduction in colony count incubated for 2 weeks by crystal violet staining based analysis; assay type: functional, cell-based
MCF7 [24] = assay: Antitumor activity against human MCF7 cells xenografted in BALB/C-nu/nu mouse model assessed as decrease in tumor volume at 30 mg/kg, iv administered every other day for 15 days relative to control; assay type: functional; design: scale not given: the % may be the effect or the level left; conditions: time 15 day
[25] = Toxicity in BALB/C-nu/nu mouse xenografted with human MCF7 cells assessed as histopathological lesions in heart at 20 to 30 mg/kg, iv administered every other day for 15 days by H and E staining based analysis; assay type: organism-based; conditions: in vivo, 360 h, dose 20-30 mg/kg, time 15 day

CN(CCO)S(=O)(=O)c1ccc(-n2ncc(Cl)c(Cl)c2=O)cc1
inhibition (MCF7 [1]): Dose-Dependent Effect
Activity (MCF7 [2]): 2.77%
Activity [3]: Non-Toxic
inhibition (MDA-MB-231 [4]): Active
Activity (MCF7 [5]): 31%
Activity (MCF7 [6]): Active
Activity (MCF7 [7]): Dose-Dependent Effect
Activity (Mitochondrial membrane): Active
Activity [8]: Dose-Dependent Effect
IC50 (4T1): 1.23 µM
Activity (MCF7 [9]): Active
viability at 0.62 µM (MCF7 [10]): 84.5%
Activity (MCF7 [11]): inactive
Activity (MCF7 [12]): 37.7%
Activity [13]: Non-Toxic
Activity (MCF7 [14]): 1.3%
Activity (MCF7 [15]): 13.5%
IC50 (A549): 2.05 µM
Activity (MCF7 [16]): Active
Activity (MCF7 [17]): Active
LD50 at 168 h [18]: 105 mg/kg
IC50 at 2 days [19]: 8.34 µM
Activity (MCF7 [20]): Active
IC50 (MCF7 [21]): 3.1 µM
survival at 168 h [22]: 20%
inhibition (MDA-MB-231 [23]): Active
Activity (MCF7 [24]): 61.6%
Activity [25]: Non-Toxic
